{"source": "PubChem BioAssay (NCI)", "assay_in_all_cases": "inhibition of tumour cell growth, NCI panel, 48 h", "key": {"U251 CNS": {"tested_on": "U251 CNS"}, "SW-620 colon": {"tested_on": "SW-620 colon"}, "HCT-116 colon": {"tested_on": "HCT-116 colon"}, "MALME-3M melanoma": {"tested_on": "MALME-3M melanoma"}, "RXF 393 renal": {"tested_on": "RXF 393 renal"}, "SK-OV-3 ovarian": {"tested_on": "SK-OV-3 ovarian"}, "NCI/ADR-RES ovarian": {"tested_on": "NCI/ADR-RES ovarian"}, "HCT-15 colon": {"tested_on": "HCT-15 colon"}, "EKVX NSCLC": {"tested_on": "EKVX NSCLC"}, "UACC-62 melanoma": {"tested_on": "UACC-62 melanoma"}, "HCC-2998 colon": {"tested_on": "HCC-2998 colon"}, "NCI-H23 lung": {"tested_on": "NCI-H23 lung"}, "MOLT-4 leukemia": {"tested_on": "MOLT-4 leukemia"}, "SR leukemia": {"tested_on": "SR leukemia"}, "CCRF-CEM leukemia": {"tested_on": "CCRF-CEM leukemia"}, "PC-3 prostate": {"tested_on": "PC-3 prostate"}, "UO-31 renal": {"tested_on": "UO-31 renal"}, "ACHN renal": {"tested_on": "ACHN renal"}, "RPMI-8226 leukemia": {"tested_on": "RPMI-8226 leukemia"}, "NCI-H460 lung": {"tested_on": "NCI-H460 lung"}, "KM12 colon": {"tested_on": "KM12 colon"}, "SK-MEL-28 melanoma": {"tested_on": "SK-MEL-28 melanoma"}, "HL-60(TB) leukemia": {"tested_on": "HL-60(TB) leukemia"}, "A498 renal": {"tested_on": "A498 renal"}, "T-47D breast": {"tested_on": "T-47D breast"}, "MDA-MB-231 breast": {"tested_on": "MDA-MB-231 breast"}}, "note": "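1) Cells in 96-well plates. 2) Compound, 48 h, 5 concentrations. 3) Linear interpolation between surrounding doses. 4) Unreached endpoint = highest concentration. GI50 marks 50% less growth. Definition used: TGI = concentration required for complete inhibition of growth.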"}
{"smiles": "COC[C@]12CC[C@@H](C)[C@H](C)[C@H]1C1=CC[C@@H]3[C@@]4(C)CCCNC(C)(C)[C@@H]4CC[C@@]3(C)[C@]1(C)CC2", "values": [{"measurement": "GI50", "setting": "U251 CNS", "value": 1.72, "unit": "µM"}, {"measurement": "TGI", "setting": "U251 CNS", "value": 3.43, "unit": "µM"}, {"measurement": "GI50", "setting": "SW-620 colon", "value": 1.8, "unit": "µM"}, {"measurement": "TGI", "setting": "SW-620 colon", "value": 3.58, "unit": "µM"}, {"measurement": "GI50", "setting": "HCT-116 colon", "value": 1.49, "unit": "µM"}, {"measurement": "TGI", "setting": "HCT-116 colon", "value": 2.92, "unit": "µM"}, {"measurement": "GI50", "setting": "MALME-3M melanoma", "value": 1.74, "unit": "µM"}, {"measurement": "TGI", "setting": "MALME-3M melanoma", "value": 3.61, "unit": "µM"}, {"measurement": "GI50", "setting": "RXF 393 renal", "value": 1.54, "unit": "µM"}, {"measurement": "TGI", "setting": "RXF 393 renal", "value": 3.02, "unit": "µM"}, {"measurement": "GI50", "setting": "SK-OV-3 ovarian", "value": 5.13, "unit": "µM"}, {"measurement": "TGI", "setting": "SK-OV-3 ovarian", "value": 19.8, "unit": "µM"}, {"measurement": "GI50", "setting": "NCI/ADR-RES ovarian", "value": 1.78, "unit": "µM"}, {"measurement": "TGI", "setting": "NCI/ADR-RES ovarian", "value": 3.57, "unit": "µM"}, {"measurement": "GI50", "setting": "HCT-15 colon", "value": 1.51, "unit": "µM"}, {"measurement": "TGI", "setting": "HCT-15 colon", "value": 3.16, "unit": "µM"}, {"measurement": "GI50", "setting": "EKVX NSCLC", "value": 1.7, "unit": "µM"}, {"measurement": "TGI", "setting": "EKVX NSCLC", "value": 3.42, "unit": "µM"}, {"measurement": "GI50", "setting": "UACC-62 melanoma", "value": 1.71, "unit": "µM"}, {"measurement": "TGI", "setting": "UACC-62 melanoma", "value": 3.19, "unit": "µM"}, {"measurement": "GI50", "setting": "HCC-2998 colon", "value": 1.76, "unit": "µM"}, {"measurement": "TGI", "setting": "HCC-2998 colon", "value": 3.38, "unit": "µM"}, {"measurement": "GI50", "setting": "NCI-H23 lung", "value": 1.8, "unit": "µM"}, {"measurement": "TGI", "setting": "NCI-H23 lung", "value": 3.62, "unit": "µM"}, {"measurement": "GI50", "setting": "MOLT-4 leukemia", "value": 1.3, "unit": "µM"}, {"measurement": "TGI", "setting": "MOLT-4 leukemia", "value": 3.03, "unit": "µM"}, {"measurement": "GI50", "setting": "SR leukemia", "value": 1.48, "unit": "µM"}, {"measurement": "TGI", "setting": "SR leukemia", "value": 3.25, "unit": "µM"}, {"measurement": "GI50", "setting": "CCRF-CEM leukemia", "value": 1.67, "unit": "µM"}, {"measurement": "TGI", "setting": "CCRF-CEM leukemia", "value": 4.2, "unit": "µM"}, {"measurement": "GI50", "setting": "PC-3 prostate", "value": 1.49, "unit": "µM"}, {"measurement": "TGI", "setting": "PC-3 prostate", "value": 3.38, "unit": "µM"}, {"measurement": "GI50", "setting": "UO-31 renal", "value": 1.57, "unit": "µM"}, {"measurement": "TGI", "setting": "UO-31 renal", "value": 3.2, "unit": "µM"}, {"measurement": "GI50", "setting": "ACHN renal", "value": 1.78, "unit": "µM"}, {"measurement": "TGI", "setting": "ACHN renal", "value": 3.22, "unit": "µM"}, {"measurement": "GI50", "setting": "RPMI-8226 leukemia", "value": 2.19, "unit": "µM"}, {"measurement": "TGI", "setting": "RPMI-8226 leukemia", "value": 5.19, "unit": "µM"}, {"measurement": "GI50", "setting": "NCI-H460 lung", "value": 1.72, "unit": "µM"}, {"measurement": "TGI", "setting": "NCI-H460 lung", "value": 3.35, "unit": "µM"}, {"measurement": "GI50", "setting": "KM12 colon", "value": 1.86, "unit": "µM"}, {"measurement": "TGI", "setting": "KM12 colon", "value": 3.43, "unit": "µM"}, {"measurement": "GI50", "setting": "SK-MEL-28 melanoma", "value": 1.81, "unit": "µM"}, {"measurement": "TGI", "setting": "SK-MEL-28 melanoma", "value": 3.34, "unit": "µM"}, {"measurement": "GI50", "setting": "HL-60(TB) leukemia", "value": 1.28, "unit": "µM"}, {"measurement": "TGI", "setting": "HL-60(TB) leukemia", "value": 3.05, "unit": "µM"}, {"measurement": "GI50", "setting": "A498 renal", "value": 1.51, "unit": "µM"}, {"measurement": "TGI", "setting": "A498 renal", "value": 3.38, "unit": "µM"}, {"measurement": "GI50", "setting": "T-47D breast", "value": 1.87, "unit": "µM"}, {"measurement": "TGI", "setting": "T-47D breast", "value": 4.39, "unit": "µM"}, {"measurement": "GI50", "setting": "MDA-MB-231 breast", "value": 1.81, "unit": "µM"}]}
